Molecules are shown by their SMILES. Structures can show the parent of a compound that is named as a salt.

Our source for the IC50 values is patent US9161924B2, “Factor IXa inhibitors” (Merck Sharp & Dohme Corp., priority 2011, dated 2015).

human factor IXa, sequence (P00740 227-461): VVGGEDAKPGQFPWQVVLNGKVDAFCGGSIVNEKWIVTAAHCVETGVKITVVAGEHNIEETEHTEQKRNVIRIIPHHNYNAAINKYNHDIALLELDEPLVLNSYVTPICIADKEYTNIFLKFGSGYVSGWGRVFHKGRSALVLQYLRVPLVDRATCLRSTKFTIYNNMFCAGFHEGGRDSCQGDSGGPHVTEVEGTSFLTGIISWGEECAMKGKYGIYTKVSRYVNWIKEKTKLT
human factor IXa, sequence (P00740 47-191 partner): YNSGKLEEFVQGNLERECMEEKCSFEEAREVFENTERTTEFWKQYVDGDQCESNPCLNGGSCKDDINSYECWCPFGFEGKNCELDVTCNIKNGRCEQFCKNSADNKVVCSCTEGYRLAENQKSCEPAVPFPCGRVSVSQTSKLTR

The assay has as its target human factor IXa (Homo sapiens (Human), UniProt P00740). Briefly: Factor IXa enzyme assay (inhibitory activity against factor IXa). It counts as biochemical. The note with it: substrate SPECTROFLUOR FIXa 100 μM, factor IXa 2.0 μg/ml, 60 minutes at room temperature, fluorescence. On the procedure:
Determination of Inhibitory Activity Against Factor IXa
Inhibitory activity against factor IXa was tested using the substrate SPECTROFLUOR FIXa (American Diagnostica Inc.; 500 West Avenue, Stamford, Conn. 06902 USA; Pr. No. 299F) and human factor IXa (American Diagnostica Inc.; Pr. No. 449b). Test substances dissolved in buffer A (50 mM α,α,α-tris (hydroxymethyl)methylamine (Tris), 100 mM NaCl, 5 mM CaCl2, 15% (v/v) ethylene glycol, pH 8.0) were mixed with factor IXa (2.0 μg/ml final concentration). The enzyme reaction was started by addition of SPECTROFLUOR FIXa (100 μM final concentration). After incubation for 60 minutes at room temperature, the reaction was stopped by the addition of 20% (v/v) acetic acid solution, and then fluorescence value measured (Excitation Wavelength:355 nm, Emission Wavelength; 460 nm) in a microtiter plate reader (ARVO 1420 Multilabel Counter; PerkinElmer).
IC50 was calculated from a dilution series of the test substance with the aid of the software, Symix Assay Explorer (Symyx Technologies, Inc.).
As a reminder, the IC50 is the point on the concentration scale where inhibition reaches its midpoint. Read a low IC50 as inhibition by little substance. Regarding `N=C(N)c1ccc(NC(=O)C(O)c2cccc(-c3ccc(OC(F)(F)F)cc3)c2)cc1` (stereo not drawn) [Compound 9, N-(4-carbamimidoylphenyl)-2-hydroxy-2-(4′-(trifluoromethoxy)biphenyl-3-yl)acetamide], half-maximal inhibition (IC50) required 440 nM.

`N=C(N)c1ccc(NC(=O)C(O)c2cccc(-c3ccc(OC(F)(F)F)cc3)c2)cc1` (stereo not drawn) [Compound 13, N-(4-carbamimidoylphenyl)-2-hydroxy-2-(4′-(trifluoromethoxy)biphenyl-3-yl)acetamide] had an IC50 of 450 nM. The IC50 values of the last two compounds are within 1.5-fold of each other. As for `Nc1nccc2cc(NC(=O)C(O)c3cccc(-c4ccc(OC(F)(F)F)cc4)c3)ccc12` (stereo not drawn) [Compound 22, N-(1-aminoisoquinolin-6-yl)-2-hydroxy-2-(4′-(trifluoromethoxy)biphenyl-3-yl)acetamide], the figure is 760 nM; as for `CC(C)(C)c1ccc(-c2cccc(C(O)C(=O)Nc3ccc(C(=N)N)cc3)c2)cc1` (stereo not drawn) [Compound 37, 2-(4′-tert-butylbiphenyl-3-yl)-N-(4-carbamimidoylphenyl)-2-hydroxyacetamide hydrochloride], 160 nM; as for `CC(C)(C)c1ccc(-c2cccc(C(O)C(=O)Nc3ccc4c(N)nccc4c3)c2)cc1` (stereo not drawn) [Compound 42, N-(1-aminoisoquinolin-6-yl)-2-(4′-tert-butylbiphenyl-3-yl)-2-hydroxyacetamide hydrochloride], 695 nM. As for `CC(C)(C)c1ccc(-c2cccc(C(O)C(=O)Nc3ccc(CN)cc3)c2)cc1` (stereo not drawn) [Compound 52, N-(4-(aminomethyl)phenyl)-2-(4′-tert-butylbiphenyl-3-yl)-2-hydroxyacetamide hydrochloride], the figure is 1450 nM.
